Laboratory results published in patent US10434075B2, “FKBP52 specific androgen receptor inhibitor, MJC13, for use in treating breast cancer” (THE BOARD OF REGENTS OF THE UNIVERSITY OF TEXAS SYSTEM, priority 2016, dated 2019).
“Also recorded” adds a separate entry of the source.

Key:
[1] = test system: human prostate cancer cell lines; settings: variety of human prostate cancer cell lines; cited from earlier work
[2] = test system: prostate cancer xenograft; settings: prostate cancer xenograft model, preclinical studies; cited from earlier work
[3] = test system: tamoxifen-resistant MCF-7 breast cancer cells; assay: Proliferation in tamoxifen-resistant MCF-7 breast cancer cells; assay type: cell-based; settings: no difference in AR expression levels, FIG. 2
[4] = molecular target: T1, β-catenin interaction with AR (Homo sapiens, UniProt P10275); assay: β-catenin interaction with AR; settings: MJC13 targeting to the AR BF3 surface; prostate cancer cells
T1 sequence (P10275 1-920): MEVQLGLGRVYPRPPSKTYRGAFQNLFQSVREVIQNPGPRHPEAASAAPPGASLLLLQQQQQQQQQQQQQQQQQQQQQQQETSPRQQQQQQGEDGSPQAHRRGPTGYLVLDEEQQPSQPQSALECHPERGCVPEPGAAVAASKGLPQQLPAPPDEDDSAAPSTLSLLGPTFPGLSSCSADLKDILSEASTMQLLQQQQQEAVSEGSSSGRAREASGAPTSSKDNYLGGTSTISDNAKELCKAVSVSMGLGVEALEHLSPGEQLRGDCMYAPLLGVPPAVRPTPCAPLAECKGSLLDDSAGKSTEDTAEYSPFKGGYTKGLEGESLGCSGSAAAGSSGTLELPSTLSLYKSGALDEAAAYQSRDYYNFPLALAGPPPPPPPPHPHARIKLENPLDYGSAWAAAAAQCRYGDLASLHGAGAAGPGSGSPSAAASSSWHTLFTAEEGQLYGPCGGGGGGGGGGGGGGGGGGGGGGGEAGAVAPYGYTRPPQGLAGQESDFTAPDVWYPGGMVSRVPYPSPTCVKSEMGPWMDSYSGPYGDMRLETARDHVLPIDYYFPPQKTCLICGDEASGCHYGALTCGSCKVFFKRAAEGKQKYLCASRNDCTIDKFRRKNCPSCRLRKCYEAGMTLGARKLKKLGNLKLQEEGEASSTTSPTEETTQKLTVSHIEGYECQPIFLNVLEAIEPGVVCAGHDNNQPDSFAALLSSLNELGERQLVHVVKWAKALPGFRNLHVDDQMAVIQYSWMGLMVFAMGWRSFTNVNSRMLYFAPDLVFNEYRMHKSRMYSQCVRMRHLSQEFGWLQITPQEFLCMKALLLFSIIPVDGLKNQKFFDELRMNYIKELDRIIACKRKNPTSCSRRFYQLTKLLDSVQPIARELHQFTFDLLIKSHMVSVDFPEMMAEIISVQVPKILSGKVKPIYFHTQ

[5] = test system: AR; settings: binding AR BF3 surface; FKBP52-receptor complex prevented from dissociating; cited from earlier work
[6] = test system: MCF-7 breast cancer cells; assay: E2-induced proliferation in MCF-7 breast cancer cells; assay type: cell-based; settings: FIG. 1
[7] = test system: ER; assay: E2-induced ER chromatin binding / ER recruitment to E2-dependent promoters; assay type: cell-based; settings: FIG. 3
[8] = test system: AR; settings: variety of human prostate cancer cell lines; cited from earlier work

What does the source list for `O=C(Nc1cccc(Cl)c1Cl)C1CCCCC1` [MJC13]?
AR-dependent cancer cell proliferation [1]: effectively block; tumor growth [2]: impressive effects on tumor growth; cell proliferation [3]: effectively inhibits cell proliferation; β-catenin interaction with AR [4]: abrogates β-catenin interaction with AR; AR cellular localisation [5]: retention of AR in the cytoplasm; E2-induced proliferation [6]: inhibits E2-induced proliferation; also recorded: effective inhibitor of E2-induced BC cell proliferation; E2-induced ER chromatin binding [7]: significantly decreases E2-induced ER chromatin binding; also recorded: affects ER recruitment to E2-dependent promoters; AR signaling [8]: effectively block AR signaling
